Experiments:
[1] = target: CtermHisTag-mEGFR Wild type (Homo sapiens, UniProt P00533); assay: TR-FRET probe displacement assay, EGFR wild type; assay type: binding; details: EGFR wild type 1.25 nM, probe 100 nM, 30 mins room temperature
Method in brief: (§1)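 Ten-point compound series, 100000 to 3 nM final, tested against His-tagged EGFR (wild type or C797S/L858R/T790M) for probe displacement. TR-FRET read at Ex337 nm, Em490/520 nm; run in technical replicate, biological duplicate.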

[2] = target: CtermHisTag-mEGFR Triple Mutant - C797S, L858R, T790M (Homo sapiens, UniProt P00533, C797S/L858R/T790M); assay: TR-FRET probe displacement assay, EGFR triple mutant; assay type: binding; details: T790M 1.25 nM, probe 100 nM, 30 mins room temperature
CtermHisTag-mEGFR Triple Mutant - C797S, L858R, T790M, sequence (P00533 25-1210 T790M/C797S/L858R): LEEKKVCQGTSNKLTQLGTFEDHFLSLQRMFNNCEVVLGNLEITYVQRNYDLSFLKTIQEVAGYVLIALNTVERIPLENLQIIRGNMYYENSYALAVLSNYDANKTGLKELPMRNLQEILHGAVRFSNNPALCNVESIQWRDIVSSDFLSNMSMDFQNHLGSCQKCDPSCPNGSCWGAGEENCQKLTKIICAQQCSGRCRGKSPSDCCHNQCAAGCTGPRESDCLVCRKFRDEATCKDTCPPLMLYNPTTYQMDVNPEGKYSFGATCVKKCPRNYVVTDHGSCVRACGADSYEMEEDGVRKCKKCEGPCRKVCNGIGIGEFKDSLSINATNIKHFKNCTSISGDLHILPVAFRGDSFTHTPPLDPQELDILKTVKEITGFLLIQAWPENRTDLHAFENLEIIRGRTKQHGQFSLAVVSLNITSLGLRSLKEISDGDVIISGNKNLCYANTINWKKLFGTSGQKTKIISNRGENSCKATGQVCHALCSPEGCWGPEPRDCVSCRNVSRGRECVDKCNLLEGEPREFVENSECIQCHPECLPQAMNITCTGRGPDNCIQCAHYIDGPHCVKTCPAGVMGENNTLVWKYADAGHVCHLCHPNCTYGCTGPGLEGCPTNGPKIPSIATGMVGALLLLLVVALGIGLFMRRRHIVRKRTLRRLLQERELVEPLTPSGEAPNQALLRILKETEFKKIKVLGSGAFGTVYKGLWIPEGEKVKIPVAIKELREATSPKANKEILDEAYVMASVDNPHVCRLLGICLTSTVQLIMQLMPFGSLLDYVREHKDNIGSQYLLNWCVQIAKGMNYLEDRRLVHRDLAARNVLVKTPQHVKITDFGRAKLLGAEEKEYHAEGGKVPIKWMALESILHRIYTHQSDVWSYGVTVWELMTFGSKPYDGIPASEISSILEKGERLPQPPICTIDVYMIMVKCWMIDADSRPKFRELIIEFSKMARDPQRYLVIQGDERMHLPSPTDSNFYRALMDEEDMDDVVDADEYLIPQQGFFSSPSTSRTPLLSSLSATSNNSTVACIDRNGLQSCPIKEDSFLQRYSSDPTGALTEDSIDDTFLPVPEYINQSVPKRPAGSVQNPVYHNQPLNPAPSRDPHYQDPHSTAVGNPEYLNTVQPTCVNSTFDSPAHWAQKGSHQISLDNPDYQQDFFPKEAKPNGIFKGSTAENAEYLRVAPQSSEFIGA
Method in brief: as §1

[3] = target: T1, Phospho-EGFR (Tyr1068) in A431 cells (Homo sapiens, UniProt P00533); assay: HTRF pEGFR/total EGFR assay in A431 cells (EGF stimulated); assay type: cell-based; details: compound 2.5 hours then 100 ng/ml EGF 30 mins, ratio pEGFR/total EGFR
T1 construct: endogenous in cells; host or cells: A431
T1 sequence (P00533 25-1210): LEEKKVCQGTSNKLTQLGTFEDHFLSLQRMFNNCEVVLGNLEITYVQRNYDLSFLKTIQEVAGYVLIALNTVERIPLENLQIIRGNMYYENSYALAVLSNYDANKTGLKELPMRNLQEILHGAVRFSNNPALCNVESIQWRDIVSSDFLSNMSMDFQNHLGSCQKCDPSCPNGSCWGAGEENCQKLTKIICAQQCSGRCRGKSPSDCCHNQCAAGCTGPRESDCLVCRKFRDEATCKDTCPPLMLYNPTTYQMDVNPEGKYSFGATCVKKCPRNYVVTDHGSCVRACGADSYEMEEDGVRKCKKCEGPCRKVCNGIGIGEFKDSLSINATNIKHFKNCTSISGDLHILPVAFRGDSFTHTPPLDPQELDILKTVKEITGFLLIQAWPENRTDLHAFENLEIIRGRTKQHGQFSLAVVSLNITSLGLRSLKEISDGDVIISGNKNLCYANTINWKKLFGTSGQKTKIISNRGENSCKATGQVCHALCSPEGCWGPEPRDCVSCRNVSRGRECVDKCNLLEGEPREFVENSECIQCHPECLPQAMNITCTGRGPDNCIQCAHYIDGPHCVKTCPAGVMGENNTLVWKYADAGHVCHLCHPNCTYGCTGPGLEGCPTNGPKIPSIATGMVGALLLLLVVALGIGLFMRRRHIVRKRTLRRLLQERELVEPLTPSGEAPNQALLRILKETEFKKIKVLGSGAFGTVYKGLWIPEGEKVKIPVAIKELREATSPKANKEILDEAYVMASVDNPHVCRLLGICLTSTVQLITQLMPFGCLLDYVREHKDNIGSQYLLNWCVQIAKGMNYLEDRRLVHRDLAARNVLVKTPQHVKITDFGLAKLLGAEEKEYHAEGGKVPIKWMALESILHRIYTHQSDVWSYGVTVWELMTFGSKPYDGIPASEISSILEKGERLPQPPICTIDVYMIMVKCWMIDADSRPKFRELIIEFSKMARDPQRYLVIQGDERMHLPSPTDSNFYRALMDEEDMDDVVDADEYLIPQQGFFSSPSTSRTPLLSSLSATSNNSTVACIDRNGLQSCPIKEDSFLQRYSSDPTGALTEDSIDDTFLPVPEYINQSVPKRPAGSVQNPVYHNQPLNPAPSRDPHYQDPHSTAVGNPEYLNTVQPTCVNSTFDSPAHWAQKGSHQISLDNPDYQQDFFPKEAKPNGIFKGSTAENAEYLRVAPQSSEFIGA
Method in brief: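 A431 cells pretreated with compounds 2.5 h (0.1% DMSO), then stimulated with 100 ng/ml EGF for 30 min. Lysates assayed by HTRF for phospho-EGFR (Tyr1068) and total EGFR, read at 665/620 nm. Values are pEGFR/total EGFR ratio as percentage of 0uM control.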

[4] = target: T2, Phospho-EGFR (Tyr1068) in H1975 C797S cells (Homo sapiens, UniProt P00533, C797S/L858R/T790M); assay: HTRF pEGFR/total EGFR assay in H1975 C797S cells; assay type: cell-based; details: H1975 C797S cells (CRISPR), compound 3 hours, ratio pEGFR/total EGFR
T2 construct: endogenous in cells; host or cells: H1975 C797S (CRISPR-edited in house from ATCC CRL-5908)
T2 sequence (P00533 25-1210 T790M/C797S/L858R): as the sequence (P00533 25-1210 T790M/C797S/L858R) above
Method in brief: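 H1975 cells carrying CRISPR-engineered EGFR C797S (with L858R/T790M) were exposed to compounds for 3 h at 0.1% DMSO, in duplicate. Lysates were read with HTRF kits for pEGFR Tyr1068 and total EGFR at 665/620 nm. Values are the pEGFR/total EGFR ratio as percent of the 0 uM control.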

[5] = target: T3, Phospho-EGFR (Tyr1068) in H1975 cells (Homo sapiens, UniProt P00533, L858R/T790M); assay: HTRF pEGFR/total EGFR assay in H1975 cells; assay type: cell-based; details: compound 3 hours, ratio pEGFR/total EGFR
T3 construct: host or cells: H1975
Method in brief: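 H1975 cells (EGFR L858R/T790M) adhered 24 h, then compound-treated for 3 h in duplicate, 0.1% DMSO final. Lysates read by HTRF at 665/620 nm for phospho-Tyr1068 and total EGFR. Value is pEGFR/total EGFR ratio as % of 0 uM control.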

CtermHisTag-mEGFR Wild type, sequence (P00533 25-1210): as the sequence (P00533 25-1210) above

Row | SMILES | IC50 [1] | IC50 [2] | IC50 [3] | IC50 [4] | IC50 [5]
1 | C#Cc1cc(NC(=O)NC2CCCC2)nc2nc(Nc3ccc(S(=O)(=O)N(C)CCN(C)C)cc3)ncc12 [Example 84] | < 1000 nM | < 20 nM | > 3000 nM | < 500 nM | < 500 nM
2 | C#Cc1cc(NC(=O)NCc2cncn2C)nc2nc(Nc3ccc(N4CCN(C)CC4)cc3)ncc12 [Example 46, 1-(5-ethynyl-2-{[4-(4-methylpiperazin-1-yl)phenyl]amino}pyrido[2,3-d]pyrimidin-7-yl)-3-[(3-methylmidazol-4-yl)methyl]urea] | < 1000 nM | < 20 nM | > 3000 nM | > 3000 nM | > 3000 nM
3 | C#Cc1cc(N2C(=O)OCC23CCCC3)nc2nc(Nc3ccc(N4CCN(C)CC4)cc3)ncc12 [Example 114, 1-(5-Ethynyl-2-{[4-(4-methylpiperazin-1-yl)phenyl]amino}pyrido[2,3-d]pyrimidin-7-yl)-3-oxa-1-azaspiro[4.4]nonan-2-one] | < 1000 nM | < 20 nM | 1000 to 3000 nM | 500 to 1000 nM | < 500 nM
4 | C#Cc1cc(NC(=O)NCc2cnco2)nc2nc(Nc3ccc(N4CCN(C)CC4)cc3)ncc12 [Example 45, 1-(5-ethynyl-2-{[4-(4-methylpiperazin-1-yl)phenyl]amino}pyrido[2,3-d]pyrimidin-7-yl)-3-(1,3-oxazol-5-ylmethyl)urea] | < 1000 nM | 20 to 100 nM | > 3000 nM | 1000 to 3000 nM | 500 to 1000 nM
5 | C#Cc1cc(NC(=O)NCc2ccccc2)nc2nc(Nc3ccc(N4CCN(C)CC4)cc3)ncc12 [Example 39, 1-benzyl-3-(5-ethynyl-2-{[4-(4-methylpiperazin-1-yl)phenyl]amino}pyrido[2,3-d]pyrimidin-7-yl)urea] | < 1000 nM | < 20 nM | > 3000 nM | < 500 nM | < 500 nM
6 | C#Cc1cc(OC)nc2nc(Nc3cccc(CN(C)C(C)=O)c3)ncc12 [Example 7, N-{[3-({5-ethynyl-7-methoxypyrido[2,3-d]pyrimidin-2-yl}amino)pheny]methyl}-N-methylacetamide] | > 10000 nM | 100 to 1000 nM | > 3000 nM | > 3000 nM | > 3000 nM
7 | C#Cc1cc(N2C(=O)NCC2C2CCCC2)nc2nc(Nc3ccc(N4CCN(C)CC4)cc3)ncc12 (stereo not shown) [Example 124, 5-Cyclopentyl-1-(5-ethynyl-2-{[4-(4-methylpiperazin-1-yl)phenyl]amino}pyrido[2,3-d]pyrimidin-7-yl)imidazolidin-2-one] | < 1000 nM | 20 to 100 nM | > 3000 nM | < 500 nM | 500 to 1000 nM
8 | C#Cc1cc(NC(=O)N(C)C2CCCC2)nc2nc(Nc3ccc(N4CCN(C)CC4)cc3)ncc12 [Example 74, 3-Cyclopentyl-1-(5-ethynyl-2-{[4-(4-methylpiperazin-1-yl)phenyl]amino}pyrido[2,3-d]pyrimidin-7-yl)-3-methylurea] | 1000 to 10000 nM | 100 to 1000 nM | > 3000 nM | > 3000 nM | > 3000 nM
9 | C#Cc1cc(Nc2nccn2C)nc2nc(Nc3ccc(N4CCN(C)CC4)cc3)ncc12 [Example 26, 5-ethynyl-N^7-(1-methylmidazol-2-yl)-N^2-[4-(4-methylpiperazin-1-yl)phenyl]pyrido[2,3-d]pyrimidine-2,7-diamine] | 1000 to 10000 nM | 20 to 100 nM | > 3000 nM | 1000 to 3000 nM | 500 to 1000 nM
10 | C#Cc1cc(NC(=O)NC2CCCC2)nc2nc(Nc3ccc(N4CCN(C)CC4)c(NCC4CCC4)c3)ncc12 [Example 63] | < 1000 nM | 20 to 100 nM | < 500 nM | 1000 to 3000 nM | < 500 nM
11 | C#Cc1cc(NC(=O)NC2(C)COC2)nc2nc(Nc3ccc(N4CCN(C)CC4)cc3)ncc12 [Example 61, 1-(5-ethynyl-2-((4-(4-methylpiperazin-1-yl)phenyl)amino)pyrido[2,3-d]pyrimidin-7-yl)-3-(3-methyloxetan-3-yl)urea] | < 1000 nM | < 20 nM | > 3000 nM | < 500 nM | < 500 nM
12 | C#Cc1cc(NC(=O)NCC2CCCO2)nc2nc(Nc3ccc(N4CCN(C)CC4)cc3)ncc12 (stereo not shown) [Example 50, 1-(5-ethynyl-2-{[4-(4-methylpiperazin-1-yl)phenyl]amino}pyrido[2,3-d]pyrimidin-7-yl)-3-(oxolan-2-ylmethyl)urea] | < 1000 nM | 20 to 100 nM | > 3000 nM | 500 to 1000 nM | < 500 nM
13 | C#Cc1cc(N2C(=O)NCC23CCCC3)nc2nc(Nc3ccc(OCCN(C)C)cc3)ncc12 [Example 95] | < 1000 nM | 20 to 100 nM | 500 to 1000 nM | 1000 to 3000 nM | 1000 to 3000 nM
14 | C#Cc1cc(NC(=O)NC2CCCC2)nc2nc(Nc3ccc(OC4CN(C)C4)cc3)ncc12 [Example 80] | < 1000 nM | < 20 nM | 1000 to 3000 nM | < 500 nM | > 3000 nM
15 | C#Cc1cc(N2C(=O)N(C)CC23CCCC3)nc2nc(Nc3ccc(S(=O)(=O)N(C)CCN(C)C)cc3)ncc12 [Example 110, N-[2-(Dimethylamino)ethyl]-4-[(5-ethynyl-7-{3-methyl-2-oxo-1,3-diazaspiro[4.4]nonan 1-yl}pyrido[2,3-d]pyrimidin-2-yl)amino]-N-methylbenzenesulfonamide] | > 10000 nM | 100 to 1000 nM | > 3000 nM | > 3000 nM | > 3000 nM
16 | C#Cc1c(C)c(NC(=O)NC2CCCC2)nc2nc(Nc3ccc(N4CCN(C)CC4)cc3)ncc12 [Example 72, 3-Cyclopentyl-1-(5-ethynyl-6-methyl-2-{[4-(4-methylpiperazin-1-yl)phenyl]amino}pyrido[2,3-d]pyrimidin-7-yl)urea] | < 1000 nM | < 20 nM | > 3000 nM | 1000 to 3000 nM | 500 to 1000 nM
17 | C#Cc1cc(-n2ccnc2)nc2nc(Nc3ccc(N4CCN(C)CC4)cc3)ncc12 [Example 35, 5-ethynyl-7-(imidazol-1-yl)-N-[4-(4-methylpiperazin-1-yl)phenyl]pyrido[2,3-d]pyrimidin-2-amine] | < 1000 nM | < 20 nM | > 3000 nM | > 3000 nM | 1000 to 3000 nM
18 | C#Cc1cc(OC(C)C)nc2nc(Nc3ccc(N4CCN(C)CC4)cc3)ncc12 [Example 17, 5-ethynyl-7-isopropoxy-N-[4-(4-methylpiperazin-1-yl)phenyl]pyrido[2,3-d]pyrimidin-2-amine] | > 10000 nM | 100 to 1000 nM | > 3000 nM | 1000 to 3000 nM | 1000 to 3000 nM
19 | C#Cc1cc(NC(=O)NC2CCCC2)nc2nc(Nc3cccc(CN4CCC(CS(C)(=O)=O)C4)c3)ncc12 (stereo not shown) [Example 86] | < 1000 nM | 20 to 100 nM | 1000 to 3000 nM | 500 to 1000 nM | > 3000 nM
20 | C#Cc1cc(NC(=O)NC2CN(S(C)(=O)=O)C2)nc2nc(Nc3ccc(N4CCN(C)CC4)cc3)ncc12 [Example 57, 1-(5-ethynyl-2-{[4-(4-methylpiperazin-1-yl)phenyl]amino}pyrido[2,3-d]pyrimidin-7-yl)-3-(1-methanesulfonylazetidin-3-yl)urea] | < 1000 nM | < 20 nM | > 3000 nM | > 3000 nM | > 3000 nM
21 | C#Cc1cc(N2C(=O)NCC23CCCC3)nc2nc(Nc3ccc(S(C)(=O)=O)cc3)ncc12 [Example 96, 1-{5-Ethynyl-2-[(4-methanesulfonylphenyl)amino]pyrido[2,3-d]pyrimidin-7-yl}-1,3-diazaspiro[4.4]nonan-2-one] | < 1000 nM | < 20 nM | 1000 to 3000 nM | 1000 to 3000 nM | 500 to 1000 nM
22 | C#Cc1cc(NC(=O)NC2CCCC2)nc2nc(Nc3cccc4c3CCN(C)C4)ncc12 [Example 88, 3-Cyclopentyl-1-{5-ethynyl-2-[(2-methyl-3,4-dihydro-1H-isoquinolin-5-yl)amino]pyrido[2,3-d]pyrimidin-7-yl}urea] | > 10000 nM | 100 to 1000 nM | > 3000 nM | > 3000 nM | > 3000 nM
23 | C#Cc1cc(NC(=O)OC2CCCC2)nc2nc(Nc3ccc(N4CCN(C)CC4)cc3)ncc12 [Example 65, cyclopentyl (5-ethynyl-2-((4-(4-methylpiperazin-1-yl)phenyl)amino)pyrido[2,3-d]pyrimidin-7-yl)carbamate] | > 10000 nM | 100 to 1000 nM | > 3000 nM | > 3000 nM | 1000 to 3000 nM

From patent US20260176265A1 (Cancer Research Technology Limited, priority 2022, published 2026)
